Assay results reported in US11541028B2, “Peptide pharmaceuticals for treatment of NASH and other disorders” (Mederis Diabetes LLC, priority 2018, dated 2023).
Numbered stars: 1 amine (or outer) side, 2 acyl side, 3 side chain; on linkers, the order of the positions; unused ones are H or OH. Bridge positions count the residues as written; N and C are the ends. Square brackets hold non-standard residues; d marks the D form. Side chains are listed from the residue outwards. Peptide text beside a SMILES is read from it. * marks the point of attachment. βGlcA(1-O-hexadecyl) = CCCCCCCCCCCCCCCCO[C@@H]1O[C@H](C(=O)*)[C@@H](O)[C@H](O)[C@H]1O; GlcA(1β-O-tetradecyl) = CCCCCCCCCCCCCCO[C@@H]1O[C@H](C(=O)*)[C@@H](O)[C@H](O)[C@H]1O; γGlu = O=C(O)[C@H](CCC(=O)[*:2])N[*:1]; εLys = N[C@@H](CCCCN[*:1])C(=O)[*:2]; Aib = CC(C)(N)C(=O)O

How the values were obtained:
human glucagon receptor = molecular target: T1, human glucagon receptor (Homo sapiens, UniProt P47871); test: DiscoveRx LeadHunter cellular assay, cAMP stimulation, glucagon receptor in CHO cells; format: cell-based
T1 construct: host or cells: CHO cells
Method: (§1) A further series of cellular assays was carried out with standard cellular assays (DiscoveRx, LeadHunter assays) using readout of cAMP stimulation or arrestin activation. Compounds were weighed precisely in an amount of about 1 mg and shipped to DiscoveRx for dilution and assay.

human GLP-1 receptor = molecular target: T2, human GLP-1 receptor (Homo sapiens, UniProt P43220); test: DiscoveRx LeadHunter cellular assay, cAMP stimulation, GLP-1 receptor in CHO cells; format: cell-based; settings: human GLP-1 receptor in CHO cells (DiscoveRx); read-out: EC50 cAMP GLP-1 R
T2 construct: host or cells: CHO cells
T2 sequence (P43220 24-463): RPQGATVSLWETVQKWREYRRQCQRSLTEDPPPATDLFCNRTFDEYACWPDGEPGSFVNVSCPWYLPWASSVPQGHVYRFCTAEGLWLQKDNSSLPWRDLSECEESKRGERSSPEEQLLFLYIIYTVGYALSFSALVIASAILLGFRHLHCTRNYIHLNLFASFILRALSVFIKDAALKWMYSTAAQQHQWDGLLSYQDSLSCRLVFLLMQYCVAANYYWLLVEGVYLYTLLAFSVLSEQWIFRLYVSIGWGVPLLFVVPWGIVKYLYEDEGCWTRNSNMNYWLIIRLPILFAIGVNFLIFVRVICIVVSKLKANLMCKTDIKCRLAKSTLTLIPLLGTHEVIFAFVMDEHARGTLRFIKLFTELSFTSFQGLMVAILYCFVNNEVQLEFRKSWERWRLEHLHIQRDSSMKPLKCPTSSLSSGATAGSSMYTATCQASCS
Method: as §1

T1 sequence (P47871 26-477): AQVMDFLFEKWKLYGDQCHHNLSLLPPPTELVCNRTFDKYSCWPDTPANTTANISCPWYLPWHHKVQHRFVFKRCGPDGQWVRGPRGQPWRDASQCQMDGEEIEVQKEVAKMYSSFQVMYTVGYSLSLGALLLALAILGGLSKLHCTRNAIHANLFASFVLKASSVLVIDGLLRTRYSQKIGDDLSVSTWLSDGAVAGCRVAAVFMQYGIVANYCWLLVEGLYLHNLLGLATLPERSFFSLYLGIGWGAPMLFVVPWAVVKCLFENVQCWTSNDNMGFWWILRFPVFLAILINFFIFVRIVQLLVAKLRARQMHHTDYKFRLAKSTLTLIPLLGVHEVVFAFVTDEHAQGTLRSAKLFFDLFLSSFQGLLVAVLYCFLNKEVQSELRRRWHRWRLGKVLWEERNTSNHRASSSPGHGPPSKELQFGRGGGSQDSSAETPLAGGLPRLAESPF

SMILES	EC50 (human glucagon receptor)	EC50 (human GLP-1 receptor)
CCCCCCCCCCCCCCO[C@@H]1O[C@H](C(=O)NCCCC[C@H](N)C(=O)NCCCC[C@H](NC(=O)[C@H](C)NC(=O)[C@H](C)NC(=O)[C@H](CCC(N)=O)NC(=O)[C@@H]2CCCCNC(=O)CC[C@H](NC(=O)[C@H](CO)NC(=O)[C@H](Cc3ccc(O)cc3)NC(=O)[C@H](CC(=O)O)NC(=O)[C@H](CO)NC(=O)[C@@H](NC(=O)[C@H](Cc3ccccc3)NC(=O)[C@@H](NC(=O)CNC(=O)[C@H](CCC(N)=O)NC(=O)C(C)(C)NC(=O)[C@@H](N)Cc3c[nH]cn3)[C@@H](C)O)[C@@H](C)O)C(=O)N[C@@H](Cc3ccc(O)cc3)C(=O)N[C@@H](CC(C)C)C(=O)N[C@@H](CC(=O)O)C(=O)N2)C(=O)N[C@@H](CCC(=O)O)C(=O)N[C@@H](Cc2ccccc2)C(=O)N[C@H](C(=O)N[C@@H](CCC(N)=O)C(=O)N[C@@H](Cc2c[nH]c3ccccc23)C(=O)N[C@@H](CC(C)C)C(=O)N[C@@H](CC(C)C)C(=O)N[C@@H](CCC(N)=O)C(=O)N[C@H](C(N)=O)[C@@H](C)O)[C@@H](C)CC)[C@@H](O)[C@H](O)[C@H]1O [EU-A1784] (H-H[Aib]QGTFTSDYSEYLDKQAAK([εLys-GlcA(1β-O-tetradecyl)])EFIQWLLQT-NH2; lactam 12-16; N-terminus assumed)	1.91 nM	0.048 nM
CCCCCCCCCCCCCCCCO[C@@H]1O[C@H](C(=O)NCCCC[C@H](N)C(=O)NCCCC[C@H](NC(=O)[C@H](C)NC(=O)[C@H](C)NC(=O)[C@H](CCC(N)=O)NC(=O)[C@@H]2CCCCNC(=O)CC[C@H](NC(=O)[C@H](CO)NC(=O)[C@H](Cc3ccc(O)cc3)NC(=O)[C@H](CC(=O)O)NC(=O)[C@H](CO)NC(=O)[C@@H](NC(=O)[C@H](Cc3ccccc3)NC(=O)[C@@H](NC(=O)CNC(=O)[C@H](CCC(N)=O)NC(=O)C(C)(C)NC(=O)[C@@H](N)Cc3c[nH]cn3)[C@@H](C)O)[C@@H](C)O)C(=O)N[C@@H](Cc3ccc(O)cc3)C(=O)N[C@@H](CC(C)C)C(=O)N[C@@H](CC(=O)O)C(=O)N2)C(=O)N[C@@H](CCC(=O)O)C(=O)N[C@@H](Cc2ccccc2)C(=O)N[C@H](C(=O)N[C@@H](CCC(N)=O)C(=O)N[C@@H](Cc2c[nH]c3ccccc23)C(=O)N[C@@H](CC(C)C)C(=O)N[C@@H](CC(C)C)C(=O)N[C@@H](CCC(N)=O)C(=O)N[C@H](C(N)=O)[C@@H](C)O)[C@@H](C)CC)[C@@H](O)[C@H](O)[C@H]1O [EU-A1785] (H-H[Aib]QGTFTSDYSEYLDKQAAK([εLys-βGlcA(1-O-hexadecyl)])EFIQWLLQT-NH2; lactam 12-16; N-terminus assumed)	5.14 nM	0.239 nM
CCCCCCCCCCCCCCO[C@@H]1O[C@H](C(=O)N[C@@H](CCC(=O)NCCCC[C@H](NC(=O)[C@H](C)NC(=O)[C@H](C)NC(=O)[C@H](CCC(N)=O)NC(=O)[C@@H]2CCCCNC(=O)CC[C@H](NC(=O)[C@H](CO)NC(=O)[C@H](Cc3ccc(O)cc3)NC(=O)[C@H](CC(=O)O)NC(=O)[C@H](CO)NC(=O)[C@@H](NC(=O)[C@H](Cc3ccccc3)NC(=O)[C@@H](NC(=O)CNC(=O)[C@H](CCC(N)=O)NC(=O)C(C)(C)NC(=O)[C@@H](N)Cc3c[nH]cn3)[C@@H](C)O)[C@@H](C)O)C(=O)N[C@@H](Cc3ccc(O)cc3)C(=O)N[C@@H](CC(C)C)C(=O)N[C@@H](CC(=O)O)C(=O)N2)C(=O)N[C@@H](CCC(=O)O)C(=O)N[C@@H](Cc2ccccc2)C(=O)N[C@H](C(=O)N[C@@H](CCC(N)=O)C(=O)N[C@@H](Cc2c[nH]c3ccccc23)C(=O)N[C@@H](CC(C)C)C(=O)N[C@@H](CC(C)C)C(=O)N[C@@H](CCC(N)=O)C(=O)N[C@H](C(N)=O)[C@@H](C)O)[C@@H](C)CC)C(=O)O)[C@@H](O)[C@H](O)[C@H]1O [EU-A1787] (H-H[Aib]QGTFTSDYSEYLDKQAAK([γGlu-GlcA(1β-O-tetradecyl)])EFIQWLLQT-NH2; lactam 12-16; N-terminus assumed)	10 nM	0.246 nM
CCCCCCCCCCCCCCCCO[C@@H]1O[C@H](C(=O)N[C@@H](CCC(=O)NCCCC[C@H](NC(=O)[C@H](C)NC(=O)[C@H](C)NC(=O)[C@H](CCC(N)=O)NC(=O)[C@@H]2CCCCNC(=O)CC[C@H](NC(=O)[C@H](CO)NC(=O)[C@H](Cc3ccc(O)cc3)NC(=O)[C@H](CC(=O)O)NC(=O)[C@H](CO)NC(=O)[C@@H](NC(=O)[C@H](Cc3ccccc3)NC(=O)[C@@H](NC(=O)CNC(=O)[C@H](CCC(N)=O)NC(=O)C(C)(C)NC(=O)[C@@H](N)Cc3c[nH]cn3)[C@@H](C)O)[C@@H](C)O)C(=O)N[C@@H](Cc3ccc(O)cc3)C(=O)N[C@@H](CC(C)C)C(=O)N[C@@H](CC(=O)O)C(=O)N2)C(=O)N[C@@H](CCC(=O)O)C(=O)N[C@@H](Cc2ccccc2)C(=O)N[C@H](C(=O)N[C@@H](CCC(N)=O)C(=O)N[C@@H](Cc2c[nH]c3ccccc23)C(=O)N[C@@H](CC(C)C)C(=O)N[C@@H](CC(C)C)C(=O)N[C@@H](CCC(N)=O)C(=O)N[C@H](C(N)=O)[C@@H](C)O)[C@@H](C)CC)C(=O)O)[C@@H](O)[C@H](O)[C@H]1O [EU-A1788] (H-H[Aib]QGTFTSDYSEYLDKQAAK([γGlu-βGlcA(1-O-hexadecyl)])EFIQWLLQT-NH2; lactam 12-16; N-terminus assumed)	10 nM	0.232 nM
CCCCCCCCCCCCCCO[C@@H]1O[C@H](C(=O)NCCCC[C@@H]2NC(=O)[C@@H](NC(=O)[C@H](CC(=O)O)NC(=O)[C@H](CC(C)C)NC(=O)[C@H](Cc3ccc(O)cc3)NC(=O)[C@H](CCCCN)NC(=O)[C@H](CO)NC(=O)[C@H](Cc3ccc(O)cc3)NC(=O)[C@H](CC(=O)O)NC(=O)[C@H](CO)NC(=O)[C@@H](NC(=O)[C@H](Cc3ccccc3)NC(=O)[C@@H](NC(=O)CNC(=O)[C@H](CCC(N)=O)NC(=O)C(C)(C)NC(=O)[C@@H](N)Cc3c[nH]cn3)[C@@H](C)O)[C@@H](C)O)CCC(=O)NCCCC[C@@H](C(=O)N[C@@H](CCC(=O)O)C(=O)N[C@@H](Cc3ccccc3)C(=O)N[C@H](C(=O)N[C@@H](CCC(=O)O)C(=O)N[C@@H](Cc3c[nH]c4ccccc34)C(=O)N[C@@H](CC(C)C)C(=O)N[C@@H](CC(C)C)C(=O)N[C@@H](CCC(N)=O)C(=O)N[C@H](C(N)=O)[C@@H](C)O)[C@@H](C)CC)NC(=O)[C@H](C)NC(=O)[C@H](C)NC2=O)[C@@H](O)[C@H](O)[C@H]1O [EU-A1841] (H-H[Aib]QGTFTSDYSKYLDEK(GlcA(1β-O-tetradecyl))AAKEFIEWLLQT-NH2; lactam 16-20; N-terminus assumed)	0.475 nM	0.316 nM
CCCCCCCCCCCCCCCCO[C@@H]1O[C@H](C(=O)NCCCC[C@@H]2NC(=O)[C@@H](NC(=O)[C@H](CC(=O)O)NC(=O)[C@H](CC(C)C)NC(=O)[C@H](Cc3ccc(O)cc3)NC(=O)[C@H](CCCCN)NC(=O)[C@H](CO)NC(=O)[C@H](Cc3ccc(O)cc3)NC(=O)[C@H](CC(=O)O)NC(=O)[C@H](CO)NC(=O)[C@@H](NC(=O)[C@H](Cc3ccccc3)NC(=O)[C@@H](NC(=O)CNC(=O)[C@H](CCC(N)=O)NC(=O)C(C)(C)NC(=O)[C@@H](N)Cc3c[nH]cn3)[C@@H](C)O)[C@@H](C)O)CCC(=O)NCCCC[C@@H](C(=O)N[C@@H](CCC(=O)O)C(=O)N[C@@H](Cc3ccccc3)C(=O)N[C@H](C(=O)N[C@@H](CCC(=O)O)C(=O)N[C@@H](Cc3c[nH]c4ccccc34)C(=O)N[C@@H](CC(C)C)C(=O)N[C@@H](CC(C)C)C(=O)N[C@@H](CCC(N)=O)C(=O)N[C@H](C(N)=O)[C@@H](C)O)[C@@H](C)CC)NC(=O)[C@H](C)NC(=O)[C@H](C)NC2=O)[C@@H](O)[C@H](O)[C@H]1O [EU-A1842] (H-H[Aib]QGTFTSDYSKYLDEK(βGlcA(1-O-hexadecyl))AAKEFIEWLLQT-NH2; lactam 16-20; N-terminus assumed)	2.11 nM	1.21 nM
CCCCCCCCCCCCCCO[C@@H]1O[C@H](C(=O)NCCCC[C@H](NC(=O)[C@H](C)NC(=O)[C@H](C)NC(=O)[C@H](CCC(N)=O)NC(=O)[C@H](CO)NC(=O)[C@H](CC(=O)O)NC(=O)[C@@H]2CCCCNC(=O)CC[C@H](NC(=O)[C@H](CC(=O)O)NC(=O)[C@H](CO)NC(=O)[C@@H](NC(=O)[C@H](Cc3ccccc3)NC(=O)[C@@H](NC(=O)CNC(=O)[C@H](CCC(N)=O)NC(=O)C(C)(C)NC(=O)[C@@H](N)Cc3c[nH]cn3)[C@@H](C)O)[C@@H](C)O)C(=O)N[C@@H](CO)C(=O)N[C@@H](CCCCN)C(=O)N[C@@H](Cc3ccc(O)cc3)C(=O)N2)C(=O)N[C@@H](CCC(=O)O)C(=O)N[C@@H](Cc2ccccc2)C(=O)N[C@H](C(=O)N[C@@H](CCC(=O)O)C(=O)N[C@@H](Cc2c[nH]c3ccccc23)C(=O)N[C@@H](CC(C)C)C(=O)N[C@@H](CC(C)C)C(=O)N[C@@H](CCC(N)=O)C(=O)N[C@H](C(N)=O)[C@@H](C)O)[C@@H](C)CC)[C@@H](O)[C@H](O)[C@H]1O [EU-A1847] (H-H[Aib]QGTFTSDESKYKDSQAAK(GlcA(1β-O-tetradecyl))EFIEWLLQT-NH2; lactam 10-14; N-terminus assumed)	1.95 nM	0.032 nM
CCCCCCCCCCCCCCCCO[C@@H]1O[C@H](C(=O)NCCCC[C@H](NC(=O)[C@H](C)NC(=O)[C@H](C)NC(=O)[C@H](CCC(N)=O)NC(=O)[C@H](CO)NC(=O)[C@H](CC(=O)O)NC(=O)[C@@H]2CCCCNC(=O)CC[C@H](NC(=O)[C@H](CC(=O)O)NC(=O)[C@H](CO)NC(=O)[C@@H](NC(=O)[C@H](Cc3ccccc3)NC(=O)[C@@H](NC(=O)CNC(=O)[C@H](CCC(N)=O)NC(=O)C(C)(C)NC(=O)[C@@H](N)Cc3c[nH]cn3)[C@@H](C)O)[C@@H](C)O)C(=O)N[C@@H](CO)C(=O)N[C@@H](CCCCN)C(=O)N[C@@H](Cc3ccc(O)cc3)C(=O)N2)C(=O)N[C@@H](CCC(=O)O)C(=O)N[C@@H](Cc2ccccc2)C(=O)N[C@H](C(=O)N[C@@H](CCC(=O)O)C(=O)N[C@@H](Cc2c[nH]c3ccccc23)C(=O)N[C@@H](CC(C)C)C(=O)N[C@@H](CC(C)C)C(=O)N[C@@H](CCC(N)=O)C(=O)N[C@H](C(N)=O)[C@@H](C)O)[C@@H](C)CC)[C@@H](O)[C@H](O)[C@H]1O [EU-A1848] (H-H[Aib]QGTFTSDESKYKDSQAAK(βGlcA(1-O-hexadecyl))EFIEWLLQT-NH2; lactam 10-14; N-terminus assumed)	3.06 nM	0.06 nM
